Experimental data: US20070275967A1, “Pyrazolinols” (BAYER CROPSCIENCE AKTIENGESELLSCHAFT, priority 2003, published 2007)

Legend:
[1] = logP determination by HPLC on reversed-phase column (EEC Directive 79/831 Annex V.A8); type: physicochemical; conditions: reversed-phase C18 HPLC column; acidic range (pH 2.3), marked a); 0.1% aqueous phosphoric acid/acetonitrile gradient; reversed-phase C 18; 43° C.
Outline: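 Reversed-phase C18 HPLC at 43° C with 10–90% acetonitrile linear gradient, run at pH 2.3 (0.1% phosphoric acid) or pH 7.5 (0.01-molar phosphate buffer). logP derived from retention times by linear interpolation against unbranched alkan-2-ones (C3–C16) of known logP.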

Meloidogyne incognita = assay: Meloidogyne test (nematicidal action by gall formation on lettuce roots); type: in vivo; conditions: for nematicidal action (formation of galls): Meloidogyne incognita egg/larvae suspension, lettuce, sand, result in words; for pest or weed control at 20 ppm: Meloidogyne incognita, 336 h, active compound concentration 20 ppm, after 14 d, nematicidal action by gall formation, read-out: Effect in % after 14 d
Procedure: Meloidogyne Test [table] To produce a suitable preparation of active compound, 1 part by weight of active compound is mixed with the stated amounts of solvent and emulsifier, and the concentrate is diluted with water to the desired concentration. Containers are filled with sand, solution of active compound, Meloidogyne incognita egg/larvae suspension and lettuce seeds. The lettuce seeds germinate and the plants develop. On the roots, galls are formed. After the desired period of time, the nematicidal action is determined in % by the formation of galls. 100% means that no galls were found; 0% means that the number of galls on the treated plants corresponds to that of the untreated control.

[2] = test system: Adults of Ctenocephalides felis; assay: Test with cat fleas/oral uptake; type: in vivo; conditions: for Kill rate in % after 2 d: active compound concentration 100 ppm, oral uptake; for mortality of fleas: oral uptake from citrated cattle blood, at least 75% kill within 48 h judged effective, result in words
Procedure: Test with Cat Fleas/Oral Uptake
Ctenocephalides Felis (Oral)
To produce a suitable formulation, a suitable solution of active compound is prepared from 10 mg of active compound and 0.5 ml of DMSO. 10 μl of this formulation are added to 2 ml of citrated cattle blood and stirred.
20 unfed adult fleas (Ctenocephalides felis, strain “Georgi”) are placed into a chamber (Ø 5 cm) whose top and bottom are closed with gauze. A metal cylinder whose underside is covered with parafilm is placed onto the chamber. The cylinder contains the 2 ml of blood/active compound formulation which can be taken up by the fleas through the parafilm membrane. Whereas the blood is warmed to 37° C., the temperature in the area of the flea chambers is adjusted to room temperature. Controls are mixed with the same volume of DMSO, without addition of a compound.
After 24 h and 48 h, the mortality in % is determined.
Compounds which effect an at least 75% kill of the fleas within 48 h are judged to be effective.

[3] = test system: larvae of the mustard beetle (Phaedon cochleariae); assay: Phaedon test (spray treatment); type: in vivo; conditions: for activity (kill of beetle larvae): Chinese cabbage disks sprayed, populated with Phaedon cochleariae larvae, result in words; for pest or weed control at 500 g/ha: Phaedon cochleariae, 168 h, active compound concentration 500 g/ha, after 7 d, spray treatment, read-out: Kill rate in % after 7 d
Procedure: Phaedon Test (Spray Treatment) [table] To produce a suitable preparation of active compound, 1 part by weight of active compound is mixed with the stated amounts of solvents and emulsifier, and the concentrate is diluted with emulsifier-containing water to the desired concentration. Disks of Chinese cabbage (Brassica pekinensis) are sprayed with a preparation of active compound of the desired concentration and, once they have dried, populated with larvae of the mustard beetle (Phaedon cochleariae). After the desired period of time, the activity in % is determined. 100% means that all beetle larvae have been killed; 0% means that none of the beetle larvae have been killed.

[4] = test system: caterpillars of the armyworm (Spodoptera frugiperda); assay: Spodoptera frugiperda test (spray treatment); type: in vivo
Procedure: Spodoptera Frugiperda Test (Spray Treatment) [table] To produce a suitable preparation of active compound, 1 part by weight of active compound is mixed with, the stated amounts of solvents and emulsifier, and the concentrate is diluted with emulsifier-containing water to the desired concentration. Disks of corn leaves (Zea mays) are sprayed with a preparation of active compound of the desired concentration and, after they have dried, populated with caterpillars of the armyworm (Spodoptera frugiperda). After the desired period of time, the activity in % is determined. 100% means that all caterpillars have been killed; 0% means that none of the caterpillars have been killed.

[5] = test system: greenhouse red spidermite (Tetranychus urticae); assay: Tetranychus test (OP-resistant/spray treatment); type: in vivo
Procedure: Tetranychus Test (OP-Resistant/Spray Treatment)
To produce a suitable preparation of active compound, 1 part by weight of active compound is mixed with the stated amounts of solvents and emulsifier, and the concentrate is diluted with emulsifier-containing water to the desired concentration.
Disks of bean leaves (Phaseolus vulgaris) which are infested by all stages of the greenhouse red spidermite (Tetranychus urticae) are sprayed with a preparation of active compound of the desired concentration.
After the desired period of time, the activity in % is determined. 100% means that all spidermites have been killed; 0% means that none of the spidermites have been killed.

## CCC1=NN(C(=S)Nc2ccc(OC)cc2)C(O)(C(F)(F)F)C1 (stereo not drawn) [Example 14]
[1]
  chromatographic logP: 3.47
Meloidogyne incognita
  nematicidal action (formation of galls): good activity
  pest or weed control at 20 ppm: 100%

## COc1ccc(NC(=S)N2N=C(C(C)C)CC2(O)C(F)(F)F)cc1 (stereo not drawn) [Example 19]
[1]
  chromatographic logP: 3.83
Meloidogyne incognita
  nematicidal action (formation of galls): good activity
  pest or weed control at 20 ppm: 100%

## CC(C)C1=NN(C(=S)Nc2c(Cl)cccc2Cl)C(O)(C(F)(F)F)C1 (stereo not drawn) [Example 29]
[2]
  Kill rate in % after 2 d: 100%
  mortality of fleas: good activity
[3]
  activity (kill of beetle larvae): good activity
  pest or weed control at 500 g/ha: 100%
[1]
  chromatographic logP: 4
[4]; Spodoptera frugiperda, 168 h, active compound concentration 500 g/ha, after 7 d, spray treatment, read-out: Kill rate in % after 7 d
  pest or weed control at 500 g/ha: 100%
[4]; corn leaf disks sprayed, populated with Spodoptera frugiperda caterpillars, result in words
  activity (kill of caterpillars): good activity

## CC(C)C1=NN(C(=S)Nc2ccc(Cl)cc2Cl)C(O)(C(F)(F)F)C1 (stereo not drawn) [Example 34]
[2]
  Kill rate in % after 2 d: 100%
  mortality of fleas: good activity
[5]; Tetranychus urticae, 120 h, active compound concentration 500 g/ha, after 5 d, OP-resistant, spray treatment, read-out: Kill rate in % after 5 d
  pest or weed control at 500 g/ha: 100%
[5]; bean leaf disks infested by all stages of Tetranychus urticae (OP-resistant), sprayed, result in words
  activity (kill of spidermites): good activity
[3]
  activity (kill of beetle larvae): good activity
  pest or weed control at 500 g/ha: 100%
[1]
  chromatographic logP: 4.91

## CC(C)C1=NN(C(=S)NCCN2CCOCC2)C(O)(C(F)(F)F)C1 (stereo not drawn) [Example 43]
[1]
  chromatographic logP: 1.45
Meloidogyne incognita
  nematicidal action (formation of galls): good activity
  pest or weed control at 20 ppm: 100%

## CC1=NN(C(=S)Nc2c(F)cccc2F)C(O)(C(F)(F)F)C1 (stereo not drawn) [Example 100]
[1]
  chromatographic logP: 2.91
Meloidogyne incognita
  nematicidal action (formation of galls): good activity
  pest or weed control at 20 ppm: 90%

## CC1=NN(C(=O)Nc2ccc(Cl)cc2)C(O)(C(F)(F)F)C1 (stereo not drawn) [Example 114]
[1]
  chromatographic logP: 3
Meloidogyne incognita
  nematicidal action (formation of galls): good activity
  pest or weed control at 20 ppm: 90%

## CC1=NN(C(=O)Nc2ccc(C(F)(F)F)cc2)C(O)(C(F)(F)F)C1 (stereo not drawn) [Example 115]
[1]
  chromatographic logP: 3.26
Meloidogyne incognita
  nematicidal action (formation of galls): good activity
  pest or weed control at 20 ppm: 100%

## CC1=NN(C(=S)Nc2ccc(Cl)cc2)C(O)(C(F)(F)F)C1 (stereo not drawn) [Example 122]
Meloidogyne incognita
  nematicidal action (formation of galls): good activity
  pest or weed control at 20 ppm: 90%

## CC1=NN(C(=S)NCc2ccc(Cl)cc2)C(O)(C(F)(F)F)C1 (stereo not drawn) [Example 123]
Meloidogyne incognita
  nematicidal action (formation of galls): good activity
  pest or weed control at 20 ppm: 90%
